# From patent publication US11512079B2, “Heterocycle substituted pyridine derivative antifungal agents” (Amplyx Pharmaceuticals, Inc., priority 2017, dated 2022)
# How the values were obtained:
# Type in all cases: cell-based
# Cryptococcus gattii = experiment: In vitro antifungal assay (Example IX), microdilution broth, MIC; conditions: minimum inhibitory concentration (≥50% inhibition), 35° C., 72 h (Cryptococcus), RPMI1640
# How it was run: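 Broth microdilution in RPMI1640 with 2.5×10^3 cells/mL inoculum; final compound concentrations were 2–0.0019 μg/mL, with 1% DMSO. Cryptococcus plates were incubated at 35 °C for 72 h, and growth was read at 600 nm to give the MIC.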
# [1] = test system: Cryptococcus neoformans H99; experiment: as above; conditions: minimum inhibitory concentration (≥50% inhibition), 35° C., 72 h, RPMI1640
# How it was run: (§1)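 CLSI broth microdilution in RPMI1640 with 2.5×10^3 cells/mL and final compound concentrations of 2-0.0019 μg/mL (1% DMSO). C. albicans 90028 plates were incubated at 35° C. for 40-48 h and C. neoformans H99 for 72 h. MIC was read as minimum inhibitory concentration, verified at 600 nm.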
# Candida albicans 90028 = experiment: as above; conditions: minimum inhibitory concentration (≥50% inhibition), 35° C., 40-48 h, RPMI1640
# How it was run: as §1
# [2] = test system: Aspergillus fumigatus MYA3626; experiment: In vitro antifungal assay (Example IX), microdilution broth, MEC; conditions: minimum effective concentration (shortening of hyphae), 35° C., 40-48 h, RPMI1640
# How it was run: (§2)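 Spore suspensions of A. fumigatus and R. pusillus adjusted to 1-2×10^4 spores/mL in RPMI1640 and exposed to compound dilutions prepared in DMSO, by broth microdilution. MEC taken as the lowest concentration shortening hyphae versus DMSO control wells, read as for echinocandins.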
# [3] = test system: Rhizomucor pusillus 46342; experiment: as above; conditions: minimum effective concentration (shortening of hyphae), 35° C., 40-48 h, RPMI1640
# How it was run: as §2
Structure (SMILES),MIC (Cryptococcus gattii) [µg/mL],MIC [1] [µg/mL],MIC (Candida albicans 90028) [µg/mL],minimal effective concentration [2] [µg/mL],minimal effective concentration [3] [µg/mL]
"COc1c(F)cc(F)cc1NCc1ccc(Cc2cc(-c3cccnc3N)on2)cc1 [compound 198, 3-(3-(4-(((3,5-difluoro-2-methoxyphenyl)amino)methyl)benzyl)isoxazol-5-yl)pyridin-2-amine]",> 1,0.1 to 1,0.1 to 1,> 1,0.1 to 1
"Nc1ncccc1-c1cc(Cc2ccc(Cn3cncn3)cc2)no1 [compound 199, 3-(3-(4-((1H-1,2,4-triazol-1-yl)methyl)benzyl)isoxazol-5-yl)pyridin-2-amine]",> 1,> 1,> 1,> 1,> 1
"Nc1ncccc1-c1cc(Cc2ccc(Cn3cnnc3)cc2)no1 [compound 200, 3-(3-(4-((4H-1,2,4-triazol-4-yl)methyl)benzyl)isoxazol-5-yl)pyridin-2-amine]",> 1,> 1,> 1,> 1,> 1
"COc1cc(F)cc(NCc2ccc(Cc3cc(-c4cccnc4N)on3)cc2)c1 [compound 201, 3-(3-(4-(((3-fluoro-5-methoxyphenyl)amino)methyl)benzyl)isoxazol-5-yl)pyridin-2-amine]",> 1,0.1 to 1,0.1 to 1,0.1 to 1,> 1
"Nc1ncccc1-c1cc(Cc2ccc(OCCn3cncn3)nc2)no1 [compound 202, 3-(3-((6-(2-(1H-1,2,4-triazol-1-yl)ethoxy)pyridin-3-yl)methyl)isoxazol-5-yl)pyridin-2-amine]",> 1,> 1,> 1,> 1,> 1
"Nc1ncccc1-c1cc(Cc2ccc(-c3ccncc3)cc2)no1 [compound 204, 3-(3-(4-(pyridin-4-yl)benzyl)isoxazol-5-yl)pyridin-2-amine]",> 1,> 1,> 1,> 1,> 1
"Nc1ncccc1-c1cc(Cc2ccc(-c3ccc(F)cc3)nc2)no1 [compound 205, 3-(3-((6-(4-fluorophenyl)pyridin-3-yl)methyl)isoxazol-5-yl)pyridin-2-amine]",> 1,0.1 to 1,0.1 to 1,> 1,0.1 to 1
"Nc1ncccc1-c1cc(Cc2ccc(OCc3ccn4ccnc4c3)nc2)no1 [compound 206, 3-(3-((6-(imidazo[1,2-a]pyridine-7-ylmethoxy)pyridin-3-yl)methyl)isoxazol-5-yl)pyridin-2-amine]",> 1,> 1,> 1,> 1,> 1
"CC(C)(O)c1cccc(Cc2ccc(Cc3cc(-c4cccnc4N)on3)cc2)c1 [compound 209, 2-(3-(4-((5-(2-aminopyridin-3-yl)isoxazol-3-yl)methyl)benzyl)phenyl)propan-2-ol]",> 1,> 1,> 1,> 1,> 1
"Nc1ncccc1-c1cc(Cc2ccc(OCc3ccncc3Cl)nc2)no1 [compound 218, 3-(3-((6-((3-chloropyridin-4-yl)methoxy)pyridin-3-yl)methyl)isoxazol-5-yl)pyridin-2-amine]",> 1,> 1,0.1 to 1,0.1 to 1,> 1
"Nc1ncccc1-c1cc(Cc2ccc(OCc3cccc(Br)n3)nc2)no1 [compound 223, 3-(3-((6-((6-bromopyridin-2-yl)methoxy)pyridin-3-yl)methyl)isoxazol-5-yl)pyridin-2-amine]",0.1 to 1,0.1 to 1,0.01 to 0.1,0.01 to 0.1,> 1
"N#CCCOc1ccc(Cc2cc(-c3cccnc3N)on2)cn1 [compound 224, 3-((5-((5-(2-aminopyridin-3-yl)isoxazol-3-yl)methyl)pyridin-2-yl)oxy)propanenitrile]",> 1,> 1,> 1,> 1,> 1
"C#CCCOc1ccc(Cc2cc(-c3cccnc3N)on2)cn1 [compound 225, 3-(3-((6-(but-3-yn-1-yloxy)pyridin-3-yl)methyl)isoxazol-5-yl)pyridin-2-amine]",0.1 to 1,0.1 to 1,0.1 to 1,0.01 to 0.1,0.1 to 1
"Nc1ncccc1-c1cc(Cc2ccc(OCc3cccc(F)n3)nc2)no1 [compound 226, 3-(3-((6-((6-fluoropyridin-2-yl)methoxy)pyridin-3-yl)methyl)isoxazol-5-yl)pyridin-2-amine]",0.1 to 1,0.01 to 0.1,0.01 to 0.1,0.01 to 0.1,> 1

# Continued, in another order:
MIC (Cryptococcus gattii) [µg/mL],MIC [1] [µg/mL],MIC (Candida albicans 90028) [µg/mL],Structure (SMILES),minimal effective concentration [2] [µg/mL],minimal effective concentration [3] [µg/mL]
0.1 to 1,0.1 to 1,> 1,"Nc1ncccc1-c1cc(Cc2ccc(-c3ccccn3)cc2)no1 [compound 203, 3-(3-(4-(pyridin-2-yl)benzyl)isoxazol-5-yl)pyridin-2-amine]",> 1,> 1
0.1 to 1,0.01 to 0.1,0.1 to 1,"COc1cc(COc2ccc(Cc3cc(-c4cccnc4N)on3)cn2)c(F)cn1 [compound 207, 3-(3-((6-((5-fluoro-2-methoxypyridin-4-yl)methoxy)pyridin-3-yl)methyl)isoxazol-5-yl)pyridin-2-amine]",0.01 to 0.1,> 1
0.01 to 0.1,0.01 to 0.1,0.01 to 0.1,"Nc1ncccc1-c1cc(Cc2ccc(Cc3cccc(F)c3)cc2)no1 [compound 208, 3-(3-(4-(3-fluorobenzyl)benzyl)isoxazol-5-yl)pyridin-2-amine]",0.01 to 0.1,0.1 to 1
0.01 to 0.1,0.01 to 0.1,0.1 to 1,"Nc1ncccc1-c1cc(Cc2ccc(Cc3cc(F)cc(F)c3)cc2)no1 [compound 212, 3-(3-(4-(3,5-difluorobenzyl)benzyl)isoxazol-5-yl)pyridin-2-amine]",0.1 to 1,0.1 to 1
0.1 to 1,0.1 to 1,0.1 to 1,"Nc1ncccc1-c1cc(Cc2ccc(OCCCc3ccccc3)nc2)no1 [compound 213, 3-(3-((6-(3-phenylpropoxy)pyridin-3-yl)methyl)isoxazol-5-yl)pyridin-2-amine]",0.1 to 1,> 1
0.1 to 1,0.1 to 1,0.1 to 1,"COc1cc(F)cc(Cc2ccc(Cc3cc(-c4cccnc4N)on3)cc2)c1 [compound 216, 3-(3-(4-(3-fluoro-5-methoxybenzyl)benzyl)isoxazol-5-yl)pyridin-2-amine]",0.1 to 1,> 1
0.1 to 1,0.1 to 1,0.1 to 1,"Nc1ncccc1-c1cc(Cc2ccc(OCc3csc(Cl)n3)nc2)no1 [compound 220, 3-(3-((6-((2-chlorothiazol-4-yl)methoxy)pyridin-3-yl)methyl)isoxazol-5-yl)pyridin-2-amine]",0.1 to 1,0.1 to 1
0.1 to 1,0.01 to 0.1,0.1 to 1,"Nc1ncccc1-c1cc(Cc2ccc(OCc3ccc(Cl)s3)nc2)no1 [compound 221, 3-(3-((6-((5-chlorothiophen-2-yl)methoxy)pyridin-3-yl)methyl)isoxazol-5-yl)pyridin-2-amine]",0.01 to 0.1,0.1 to 1
0.1 to 1,0.01 to 0.1,0.01 to 0.1,"Nc1ncccc1-c1cc(Cc2ccc(OCc3cccc(Cl)n3)nc2)no1 [compound 222, 3-(3-((6-((6-chloropyridin-2-yl)methoxy)pyridin-3-yl)methyl)isoxazol-5-yl)pyridin-2-amine]",0.01 to 0.1,> 1
0.01 to 0.1,0.01 to 0.1,0.1 to 1,"[N-]=[N+]=Nc1cccc(NCc2ccc(Cc3cc(-c4cccnc4N)on3)cc2)c1 [compound 231, 3-(3-(4-(((3-azidophenyl)amino)methyl)benzyl)isoxazol-5-yl)pyridin-2-amine]",0.01 to 0.1,0.1 to 1
≤ 0.01,≤ 0.01,0.01 to 0.1,"Nc1ncccc1-c1cc(Cc2ccc(Oc3cccc(Cl)n3)cc2)no1 [compound 234, 3-(3-(4-((6-chloropyridin-2-yl)oxy)benzyl)isoxazol-5-yl)pyridin-2-amine]",0.01 to 0.1,0.1 to 1
≤ 0.01,≤ 0.01,0.01 to 0.1,"Nc1ncccc1-c1cc(Cc2ccc(Oc3ncccc3F)cc2)no1 [compound 235, 3-(3-(4-((3-fluoropyridin-2-yl)oxy)benzyl)isoxazol-5-yl)pyridin-2-amine]",0.01 to 0.1,0.1 to 1
